In one assay the test system is B16-F10. In words: In vitro inhibitory activity against B16F10 tumor cells; IA= Inactive. The format is functional, cell-based, Mus musculus.
The next assay deals with Nucleic Acid. In words: Inhibitory against Escherichia coli derived DNA gyrase II as ability to induce strand breakage; IA means Inactive. The format is nucleic-acid assay.
Assay [1] in a line: In vitro activity in agar dilution-streak assay against Gram-negative bacteria at 100 ug/ml; IA means Inactive. The format is functional.
A further assay relates to Bacteria. In words: In vitro activity in agar dilution-streak assay against Gram-positive bacteria at 100 ug/ml; IA means Inactive. The format is functional, organism-based. (In agar dilution the substance is mixed into plates at graded concentrations.)
The next assay deals with HT-29. In words: In vitro inhibitory activity against HT-29 tumor cells; IA= inactive. The format is functional, cell-based, Homo sapiens.
The subject of another assay is A549. Put plainly: In vitro inhibitory activity against A549 tumor cell culture; IA= Inactive. The format is functional, cell-based, Homo sapiens.
The test system of a further assay is P388. In words: In vitro inhibitory activity against P-388 tumor cells; IA= Inactive. The format is functional, cell-based, Mus musculus.

Each structure is given as a SMILES string. Calls of active or inactive are those of the source. No cut-off for these calls is given here.

Turning to `CCN1CC(C(=O)O)C(=O)c2c(O)c3c(c(O)c21)C(=O)c1ccccc1C3=O` (stereo not drawn), the IC50 entry in the assay with B16-F10, in the assay with HT-29, in the assay on A549 and in the assay with P388 was “Not Active” throughout. Further, the result (in the assay with Nucleic Acid; in assay [1]; with Bacteria) was inactive.
Take `O=C(O)c1cn(C2CC2)c2cc(N3CCNCC3)c(F)cc2c1=O`: the outcome (in assay [1]; in the assay with Bacteria) was inactive.
For `O=C1c2ccccc2C(=O)c2c(O)c3c(c(O)c21)C(=O)C(C(=O)O)CN3c1ccc(F)cc1` (stereo not drawn), the IC50 result with B16-F10, in the assay on HT-29, with A549 and in the assay on P388 was “Not Active” in each case. In addition, the outcome (in the assay with Nucleic Acid; in assay [1]; with Bacteria) was inactive.
Take `O=C1c2ccccc2C(=O)c2c(O)c3c(c(O)c21)C(=O)C(C(=O)O)CN3C1CC1` (stereo not drawn): the IC50 result with B16-F10, in the assay on HT-29, in the assay with A549 and in the assay on P388 was “Not Active” each time. Moreover, the result (in the assay with Nucleic Acid; in assay [1]; in the assay with Bacteria) was inactive.

The values are drawn from ChEMBL document CHEMBL1129916, “Topoisomerase II inhibitors. Synthetic hybridization of 4-quinolones and anthracyclines” (Bioorg Med Chem Lett, 1997).
